Counter-ions that a name gives are not always drawn. Like-named read-outs stand apart in the source and are kept apart here. abz = not defined here; dnp = not defined here
How the values were obtained:
S. suis = test: microbe, parasite or virus in culture; set-up: species or system Streptococcus suis; microtiter broth dilution MIC of natural products against S. suis
Description: To find potent Ss-SrtA inhibitors, the 11 natural products listed in S1 Table were selected for experimental validation using purified recombinant Ss-SrtA. […] Using the microtiter broth dilution method, we measured the MIC values of all these natural products to be >500 μM (S1 Table). […] S. suis strains were cultured in Todd–Hewitt broth (THB; Oxoid Ltd.) without shaking or Todd–Hewitt broth agar plates at 37°C with 5% CO2. E. coli and S. aureus strains were grown in Luria-Bertani (LB) medium at 37°C with shaking at 200 rpm or plated on LB agar. If required, cultures were supplemented with antibiotics at the following concentrations: erythromycin, 3 μg ml^−1 for S. aureus; ampicillin, 100 μg ml^−1 for E. coli.

Sortase A (Ss-SrtA) = target: T1, Sortase A (Ss-SrtA) (Streptococcus suis, UniProt Q8VUP7); test: fluorescence-quenched peptide (abz-LPATG-dnp) hydrolysis assay with recombinant enzyme; assay type: biochemical
T1 construct: residues N24-Q235, C-terminal His-tag
T1 sequence (Q8VUP7 entry or part of it): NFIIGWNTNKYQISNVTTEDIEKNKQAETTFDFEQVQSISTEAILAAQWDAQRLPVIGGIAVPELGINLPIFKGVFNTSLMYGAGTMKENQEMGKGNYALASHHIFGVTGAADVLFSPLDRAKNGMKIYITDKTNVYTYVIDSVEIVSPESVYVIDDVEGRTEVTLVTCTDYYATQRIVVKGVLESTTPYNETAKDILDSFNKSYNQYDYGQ

Sortase A (Sa-SrtA) [1] = target: T2, Sortase A (Sa-SrtA) (Staphylococcus aureus, UniProt Q2FV99); test: SrtA-dependent fluorescent peptide incorporation in live cells, flow cytometry; […] inhibition at […]; assay type: cell-based
T2 construct: endogenous, S. aureus Newman D2C cells
T2 sequence (Q2FV99 whole entry): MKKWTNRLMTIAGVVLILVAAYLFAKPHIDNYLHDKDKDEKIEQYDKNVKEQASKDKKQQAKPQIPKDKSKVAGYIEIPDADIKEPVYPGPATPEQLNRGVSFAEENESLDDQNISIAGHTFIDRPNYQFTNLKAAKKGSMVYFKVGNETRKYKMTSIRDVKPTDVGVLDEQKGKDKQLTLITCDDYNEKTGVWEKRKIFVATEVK

Sortase A (Sa-SrtA) [2] = target: T2, Sortase A (Sa-SrtA); test: as above; assay type: cell-based; remark: listed apart in the source
Sortase A (Sa-SrtA) [3] = target: T2, Sortase A (Sa-SrtA); test: as above; assay type: cell-based; remark: listed apart in the source
[4] = target: Streptococcus suis sortase A (recombinant, residues N24-Q235 with C-terminal His-tag) (Streptococcus suis)
[5] = Streptococcus suis, read-out: MIC

| Molecule | MIC (S. suis; [5]) [µM] | IC50 (Sortase A (Ss-SrtA)) [µM] | further results |
| --- | --- | --- | --- |
| O=c1cc(-c2ccc(O)cc2)oc2c([C@@H]3O[C@H](CO)[C@@H](O)[C@H](O)[C@H]3O)c(O)cc(O)c12 [Vitexin] |  |  | MIC (S. suis; inhibitor): >500 µM |
| C[C@@H]1O[C@@H](OC[C@H]2O[C@@H](Oc3c(-c4ccc(O)c(O)c4)oc4cc(O)cc(O)c4c3=O)[C@H](O)[C@@H](O)[C@@H]2O)[C@H](O)[C@H](O)[C@H]1O [Rutin] | > 500 |  |  |
| COc1ccc2cc3[n+](cc2c1OC)CCc1cc2c(cc1-3)OCO2 [berberine hydrochloride] | > 500 | < 100 |  |
| O=c1c(O)c(-c2ccc(O)c(O)c2)oc2cc(O)cc(O)c12 [quercetin] | > 500 | < 100 |  |
| CCCCC[C@H](O)CC(=O)CCc1ccc(O)c(OC)c1 [6-Gingerol] | > 500 |  |  |
| COc1c(O)cc(O)c2c(=O)cc(-c3ccccc3)oc12 [Wogonin] | > 500 |  |  |
| C[C@@H]1O[C@@H](O[C@@H]2[C@@H](O)[C@H](OCCc3ccc(O)c(O)c3)O[C@H](CO)[C@H]2OC(=O)/C=C/c2ccc(O)c(O)c2)[C@H](O)[C@H](O)[C@H]1O [acteoside] | > 500 | 36.3 ± 1.3 | inhibition at 200 µM (Sortase A (Sa-SrtA) [1]): 86% |
| O=c1cc(-c2ccccc2)oc2cc(O)c(O)c(O)c12 [Baicalein] | > 500 |  |  |
| O=c1c(O[C@@H]2O[C@H](CO)[C@@H](O)[C@H](O)[C@H]2O)c(-c2ccc(O)c(O)c2)oc2cc(O)cc(O)c12 [isoquercitrin] | > 500 |  | inhibition at 200 µM (Sortase A (Sa-SrtA) [2]): 28% |
| COc1cc(/C=C/C(=O)CC(=O)/C=C/c2ccc(O)c(OC)c2)ccc1O [curcumin] | > 500 | < 100 |  |
| O=C(O)[C@H]1O[C@@H](Oc2cc3oc(-c4ccccc4)cc(=O)c3c(O)c2O)[C@H](O)[C@@H](O)[C@@H]1O [baicalin] | > 500 | 85.4 ± 1.5 | inhibition at 200 µM (Sortase A (Sa-SrtA) [3]): 45% |
| abz-LPATG-dnp (reading uncertain; also: printed as abz-LPATG-dnp) [abz-LPATG-dnp (internally quenched fluorescent peptide substrate)] |  |  | Km for the hydrolysis of abz-LPATG-dnp by purified Ss-SrtA (fluorescence increase of the quenched peptide; substrate 0.375-64 μM; 50 mM Tris·HCl, 150 mM NaCl, pH 7.5, 37°C) [4]: 6.7 μM |
